Measurements taken from patent publication US5759996A, “Peptides useful for altering αv β3 -mediated binding” (priority 1995, dated 1998).
Where a SMILES comes first, the peptide text is derived from it. Bridges are numbered along the chain shown (N, C = ends). [ ]: non-standard residue; d: D form. Tic = O=C(O)[C@@H]1Cc2ccccc2CN1; Pen = CC(C)(S)[C@H](N)C(=O)O; Mpa = O=C(O)CCS

Legend:
[1] = parathyroid hormone-induced hypercalcemia in mice; format: in vivo; settings: parathyroidectomized mice, 4 hr infusion, various doses
Description: Parathyroid hormone (PTH) activates osteoclasts, which are involved in bone resorption. Associated with the increased osteoclast activity is an increase in serum calcium. The PTH-induced hypercalcemia assay measures the level of serum calcium, which is an indication of bone resorption in a subject (Fischer et al., Endocrinology 132:1411-1413 (1993), which is incorporated herein by reference).
Swiss-Webster mice, which had been parathyroidectomized two weeks prior to beginning the assay, were obtained from Taconic Lab Animals and Services (Germantown N.Y.). Femoral vein catheters (PE-50 fused with PE10 polyethylene tubing; Becton Dickinson; Parsippany, N.J.) were installed in the mice, flushed and locked with heparinized saline (1:10), sutured to adjacent muscle and internalized within the inguinal space of the incision before closing the incision with wound clips. […]
The experiment was initiated by feeding the mice a calcium-deficient diet overnight, then injecting the mice the following morning with a bolus of 0.2 mg PTH/kg (hPTH 1-34; Bachem; Torrance Calif.), intravenously. […] Various doses of a peptide or vehicle were infused into an animal for 4 hr, then ionized serum calcium again was measured. […] Serum calcium measurements were expressed as the difference between the value 30 min before the PTH pulse and 4 hr after peptide infusion was started. […]

αv β3 integrin receptor = αv β3 integrin receptor (Homo sapiens, UniProt P05106+P06756); assay: series of in vitro assays of Example II (potency and selectivity summary)
[2] = molecular target: T1, purified human α5 β1 (FnR) (Homo sapiens, UniProt P05556+P08648); assay: α5 β1 ELISA (competitive); format: binding
T1 construct: Fibronectin receptor (FnR) was purified from 100 mM octyl-glucopyranoside-extracted human placenta; from tissue; host or cells: human placenta
Protocol: Peptide binding to purified human α5 β1 (FnR) also was determined using a competitive ELISA. In these assays, Fn was immobilized to the wells and the binding of solubilized FnR in the presence of various concentrations of a peptide analogue was determined using a mouse monoclonal antibody to human β1 (clone P4C10; Gibco) and specific binding was visualized using a second antibody.
Microtiter wells were coated at RT by adding 100 μl of 2 μg/ml human Fn in TBS and incubating the plates overnight at 4° C. Following incubation, the plates were washed 3× with TBS/"TWEEN 20" (polyoxyethylenesorbitan monolaurate). RGD peptides were diluted in TBS containing 20 mM OG and 2 mM MnCl2 and 50 μl was added to wells at 10-fold serial dilutions. FnR was diluted in the same buffer and 50 μl was added to each well.
The plates were incubated for 3 hr at RT and washed with 300 μl TBS/"TWEEN 20" (polyoxyethylenesorbitan monolaurate). Bound receptor was incubated with 100 μl of the monoclonal anti-β1 antibody for 2 hr, then washed 3× with TBS/"TWEEN 20" (polyoxyethylenesorbitan monolaurate). […] The amount of bound second antibody was determined as described above.
The IC50 values for various RGD peptides were calculated by determining the concentration of a peptide that inhibited binding of Vn to αv β5 or αv β3 or of Fn to α5 β1, by 50%. […]

[3] = half-life of peptide in serum; settings: in vivo
Description: Increased stability of a disulfide bonded peptide of the invention also can be conferred by incorporating a hydrophobic amino acid residue such as phenylalanine at position X1 or X8 or both X1 and X8 in an RGDNTic (SEQ ID NO: 31) or RGDDV (SEQ ID NO: 1) pharmacophore as disclosed herein. The presence of such a residue can stabilize the disulfide bond against enzymatic degradation (see Bauer et al., Life Sciences 31:1133-1140 (1982)). […] In addition, the half-life of a peptide in a subject can be determined, for example, by high performance liquid chromatography (HPLC) of serum samples collected from the subject at various times following administration of the peptide. One skilled in the art would know how to select appropriate elution buffers for HPLC based on the physico-chemical properties of a particular peptide.

[4] = cited from earlier work
osteoclasts = settings: cited from earlier work
[5] = rabbit, in vivo; cited from earlier work

CC(C)[C@@H]1NC(=O)[C@H](CC(=O)O)NC(=O)[C@H](CC(=O)O)NC(=O)CNC(=O)[C@H](CCCNC(=N)N)NC(=O)CCSSC[C@@H](C(N)=O)NC1=O [compound 191] ([Mpa]RGDDVC-NH2; disulfide 1-7)
PTH-induced rise in serum ionized calcium [1]: decreased the PTH-induced rise in serum ionized calcium in a dose responsive manner

CC(=O)N[C@H]1CSSC(C)(C)[C@@H](C(N)=O)NC(=O)[C@@H]2CCCN2C(=O)[C@H](CC(N)=O)NC(=O)[C@H](CC(=O)O)NC(=O)CNC(=O)[C@H](CCCNC(=N)N)NC1=O [compound 228] (Ac-CRGDNP[Pen]-NH2; disulfide 1-7)
receptor selectivity (summary) (αv β3 integrin receptor; summary of assays): particularly receptor selective

C[C@@H]1NC(=O)[C@H](CCCNC(=N)N)NC(=O)CNC(=O)CC[C@@H](C(N)=O)NC(=O)[C@@H]2CCCN2C(=O)[C@H](CC(N)=O)NC(=O)[C@H](CC(=O)O)NC(=O)CNC(=O)[C@H](CCCNC(=N)N)NC1=O [compound 390] (GRARGDNPE-NH2; lactam N-9)
receptor selectivity α5 β1 versus αv β5 [2]: more selective toward α5 β1 than toward αv β5

CC(=O)N[C@H]1CSSC[C@@H](C(N)=O)NC(=O)[C@@H]2Cc3ccccc3CN2C(=O)[C@H](CO)NC(=O)[C@H](CC(=O)O)NC(=O)CNC(=O)[C@H](CCCNC(=N)N)NC1=O [compound 812, Ac-CRGDS(Tic)C-NH2] (Ac-CRGDS[Tic]C-NH2; disulfide 1-7)
activity (FIG. 2 assays) (αv β3 integrin receptor; minimal-element peptides): demonstrate activity
potency (active at relatively low concentration) (αv β3 integrin receptor; summary of assays): particularly potent

CC(=O)N[C@@H]1C(=O)N[C@@H](Cc2ccccc2)C(=O)N[C@@H](C)C(=O)N[C@@H](CCCNC(=N)N)C(=O)NCC(=O)N[C@@H](CC(=O)O)C(=O)N[C@@H](CC(N)=O)C(=O)N2CCC[C@H]2C(=O)N[C@H](C(N)=O)CSSC1(C)C [peptide 214] (Ac-[Pen]FARGDNPC-NH2; disulfide 1-9)
potency (active at relatively low concentration) (αv β3 integrin receptor; summary of assays): particularly potent

CC(=O)N[C@@H](Cc1ccccc1)C(=O)N[C@H]1CSSC[C@@H](C(N)=O)NC(=O)[C@H](Cc2ccccc2)NC(=O)[C@H]([C@@H](C)O)NC(=O)[C@H](CC(=O)O)NC(=O)CNC(=O)[C@H](CCCNC(=N)N)NC1=O [peptide 220] (Ac-FCRGDTFC-NH2; disulfide 2-8)
half-life in serum [3]: relatively long half-life in serum

Echistatin
bone resorption in vivo [4]: inhibits bone resorption
binding to osteoclasts (osteoclasts): binds to osteoclasts in a nonselective manner
bone resorption in vitro (osteoclasts; in vitro): inhibits bone resorption in vitro

G(Pen)GRGDSPCA
neointimal hyperplasia [5]: inhibit neointimal hyperplasia
